Assays:
[1] = tested on: MCF-10A; assay: Cytotoxicity against human MCF-10A cells assessed as reduction in cell viability at 50 uM incubated for 4 days by MTT assay; assay type: toxicity, cell-based; settings: 96 h, time 4 day
[2] = tested on: A549; assay: Antiproliferative activity against human A549 cells by MTT assay; assay type: functional, cell-based
[3] = tested on: MCF7; assay: Antiproliferative activity against human MCF7 cells by MTT assay; assay type: functional, cell-based
[4] = tested on: PANC-1; assay: Antiproliferative activity against human PANC-1 cells by MTT assay; assay type: functional, cell-based
[5] = tested on: HT-29; assay: Antiproliferative activity against human HT-29 cells by MTT assay; assay type: functional, cell-based
[6] = molecular target: Cyclin-dependent kinase 2 (Homo sapiens, UniProt P24941)
Description: Inhibition of CDK2 (unknown origin)

[7] = molecular target: Epidermal growth factor receptor (Homo sapiens, UniProt P00533); assay: Inhibition of EGFR (unknown origin)
Epidermal growth factor receptor, sequence (P00533 whole entry): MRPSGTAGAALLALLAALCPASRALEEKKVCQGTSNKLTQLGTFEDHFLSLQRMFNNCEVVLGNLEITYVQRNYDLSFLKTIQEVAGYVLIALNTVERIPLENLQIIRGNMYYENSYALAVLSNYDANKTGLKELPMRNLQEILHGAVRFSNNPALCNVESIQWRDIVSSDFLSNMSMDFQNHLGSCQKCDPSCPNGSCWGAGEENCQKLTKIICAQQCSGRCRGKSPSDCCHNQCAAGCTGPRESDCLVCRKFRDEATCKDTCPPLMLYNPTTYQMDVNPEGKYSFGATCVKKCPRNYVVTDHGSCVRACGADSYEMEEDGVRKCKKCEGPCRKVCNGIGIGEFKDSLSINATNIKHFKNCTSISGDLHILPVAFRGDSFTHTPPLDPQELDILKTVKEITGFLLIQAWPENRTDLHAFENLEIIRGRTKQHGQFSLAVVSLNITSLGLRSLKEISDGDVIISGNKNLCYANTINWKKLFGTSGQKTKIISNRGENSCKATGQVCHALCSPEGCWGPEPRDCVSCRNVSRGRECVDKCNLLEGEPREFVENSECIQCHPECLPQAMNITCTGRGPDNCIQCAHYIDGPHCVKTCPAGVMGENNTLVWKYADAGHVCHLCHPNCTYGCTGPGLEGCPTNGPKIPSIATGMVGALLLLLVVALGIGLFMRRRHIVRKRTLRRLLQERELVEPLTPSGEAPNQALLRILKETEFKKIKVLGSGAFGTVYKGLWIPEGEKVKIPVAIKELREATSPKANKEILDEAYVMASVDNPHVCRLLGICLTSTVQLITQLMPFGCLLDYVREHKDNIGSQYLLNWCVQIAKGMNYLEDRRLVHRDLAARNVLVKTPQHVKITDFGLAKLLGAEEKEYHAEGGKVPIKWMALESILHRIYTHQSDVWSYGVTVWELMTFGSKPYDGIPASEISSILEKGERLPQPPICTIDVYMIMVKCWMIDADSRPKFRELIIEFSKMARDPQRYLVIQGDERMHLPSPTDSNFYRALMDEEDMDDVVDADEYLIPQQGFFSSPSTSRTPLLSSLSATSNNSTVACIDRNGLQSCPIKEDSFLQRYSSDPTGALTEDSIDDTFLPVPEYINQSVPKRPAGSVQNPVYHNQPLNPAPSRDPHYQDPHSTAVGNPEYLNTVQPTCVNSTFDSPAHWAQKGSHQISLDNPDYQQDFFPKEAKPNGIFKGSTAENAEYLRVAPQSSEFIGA

Structure (SMILES)	Activity [1]	IC50 [2]	IC50 [3]	IC50 [4]	IC50 [5]	IC50 [6]	IC50 [7]
CCc1c(C(=O)N2CCN(c3ccccc3)CC2)[nH]c2ccc(C(F)(F)F)cc12	91%	117 nM	123 nM	130 nM	130 nM	–	–
CCc1c(C(=O)NCCc2ccc(N3CCOCC3)cc2)[nH]c2ccc(Br)cc12	91%	67 nM	74 nM	75 nM	79 nM	–	–
CCc1c(C(=O)NCCc2ccccc2)[nH]c2ccc(C(F)(F)F)cc12	88%	157 nM	162 nM	165 nM	170 nM	–	–
CCc1c(C(=O)NCCc2ccccc2)[nH]c2ccc(Br)cc12	89%	138 nM	142 nM	145 nM	148 nM	–	–
CCc1c(C(=O)N2CCN(c3ccccc3)CC2)[nH]c2ccc(Br)cc12	85%	185 nM	190 nM	195 nM	202 nM	–	–
Cc1c(C(=O)NCCc2ccc(F)cc2)[nH]c2cc(F)ccc12	–	–	–	–	–	34 nM	98 nM
CCc1c(C(=O)N2CCN(c3ccccc3)CC2)[nH]c2ccc(C)cc12	90%	125 nM	132 nM	137 nM	140 nM	–	–
CCc1c(C(=O)NCCc2ccc(N3CCOCC3)cc2)[nH]c2ccc(C)cc12	89%	34 nM	42 nM	35 nM	37 nM	16 nM	85 nM
CCc1c(C(=O)NCCc2ccc(N3CCCCC3)cc2)[nH]c2ccc(Br)cc12	90%	89 nM	93 nM	97 nM	97 nM	–	–
CCc1c(C(=O)NCCc2ccc(N3CCCCC3)cc2)[nH]c2ccc(C)cc12	89%	51 nM	54 nM	59 nM	57 nM	33 nM	117 nM
CCc1c(C(=O)NCCc2ccccc2)[nH]c2ccc(C)cc12	87%	64 nM	69 nM	72 nM	75 nM	46 nM	134 nM
CCc1c(C(=O)NCCc2ccc(N(C)C)cc2)[nH]c2ccc(Br)cc12	91%	108 nM	112 nM	115 nM	120 nM	–	–
CCc1c(C(=O)NCCc2ccc(N3CCCC3C)cc2)[nH]c2ccc(Br)cc12 (stereo not given)	86%	172 nM	185 nM	190 nM	197 nM	–	–
CCc1c(C(=O)NCCc2ccc(N3CCOCC3)cc2)[nH]c2ccc(C(F)(F)F)cc12	87%	43 nM	45 nM	52 nM	55 nM	24 nM	94 nM
CCc1c(C(=O)NCCc2ccc(N3CCCCC3)cc2)[nH]c2ccc(C(F)(F)F)cc12	85%	77 nM	82 nM	85 nM	87 nM	–	–
